Source: ChEMBL document CHEMBL1137709, “Enhanced activity of fluorinated quaternary ammonium surfactants against Pseudomonas aeruginosa” (Eur J Med Chem, 2009)

Columns and labels:
Pseudomonas aeruginosa = assay: Antibacterial activity against Pseudomonas aeruginosa CIP A22 after 24 hrs; format: functional; details: CIP A22, 24 h
[1] = Critical micelle concentration in aqueous potassium hydroxide assessed as breakpoint of conductivity by conductimeter; format: physicochemical; details: buffer

Row | SMILES | MIC (Pseudomonas aeruginosa) [µM] | CMC [1] [mM] | solubility [1]
1 | C[N+](C)(CCCCCCCCCCCC[N+](C)(C)CC(=O)NCCC(F)(F)C(F)(F)C(F)(F)C(F)(F)C(F)(F)C(F)(F)F)CC(=O)NCCC(F)(F)C(F)(F)C(F)(F)C(F)(F)C(F)(F)C(F)(F)F.[Br-].[Br-] | 2.76 | 0.269 | –
2 | C[N+](C)(CCCCCCCCCC[N+](C)(C)CC(=O)NCCC(F)(F)C(F)(F)C(F)(F)C(F)(F)C(F)(F)C(F)(F)F)CC(=O)NCCC(F)(F)C(F)(F)C(F)(F)C(F)(F)C(F)(F)C(F)(F)F.[Br-].[Br-] | 2.83 | 0.296 | –
3 | C[N+](C)(CCCC[N+](C)(C)CCOC(=O)NCCC(F)(F)C(F)(F)C(F)(F)C(F)(F)C(F)(F)C(F)(F)F)CCOC(=O)NCCC(F)(F)C(F)(F)C(F)(F)C(F)(F)C(F)(F)C(F)(F)F.[Br-].[Br-] | 3.69 | 0.54 | –
4 | C[N+](C)(CCCC[N+](C)(C)CSCCC(F)(F)C(F)(F)C(F)(F)C(F)(F)C(F)(F)C(F)(F)F)CSCCC(F)(F)C(F)(F)C(F)(F)C(F)(F)C(F)(F)C(F)(F)F.[Br-].[Br-] | 4.59 | – | Insoluble
5 | C[N+](C)(CCCC[N+](C)(C)CCC(F)(F)C(F)(F)C(F)(F)C(F)(F)C(F)(F)C(F)(F)F)CCC(F)(F)C(F)(F)C(F)(F)C(F)(F)C(F)(F)C(F)(F)F.[Br-].[Br-] | 7.31 | 2.39 | –
6 | O=C(C[N+]12CC[N+](CC(=O)NCCC(F)(F)C(F)(F)C(F)(F)C(F)(F)C(F)(F)C(F)(F)F)(CC1)CC2)NCCC(F)(F)C(F)(F)C(F)(F)C(F)(F)C(F)(F)C(F)(F)F.[Br-].[Br-] | 5.82 | 0.466 | –
7 | C[N+](C)(C/C=C/C[N+](C)(C)CC(=O)NCCC(F)(F)C(F)(F)C(F)(F)C(F)(F)C(F)(F)C(F)(F)F)CC(=O)NCCC(F)(F)C(F)(F)C(F)(F)C(F)(F)C(F)(F)C(F)(F)F.[Br-].[Br-] | 3.67 | 0.559 | –
8 | C[N+](C)(CCCC[N+](C)(C)CCNC(=O)NCCC(F)(F)C(F)(F)C(F)(F)C(F)(F)C(F)(F)C(F)(F)F)CCNC(=O)NCCC(F)(F)C(F)(F)C(F)(F)C(F)(F)C(F)(F)C(F)(F)F.[Br-].[Br-] | 5.38 | 0.523 | –
9 | CCCCCCCCNC(=O)C[N+](C)(C)CCCC[N+](C)(C)CC(=O)NCCCCCCCC | 51.2 | – | –
10 | C[N+](C)(CCCC[N+](C)(C)CCNC(=O)CCC(F)(F)C(F)(F)C(F)(F)C(F)(F)C(F)(F)C(F)(F)F)CCNC(=O)CCC(F)(F)C(F)(F)C(F)(F)C(F)(F)C(F)(F)C(F)(F)F.[Br-].[Br-] | 1.88 | 0.547 | –
11 | CCCCCCCCCCCC[N+](C)(C)CCOc1ccccc1 [DOMIPHEN BROMIDE] | 40.8 | – | –

Next, values leading:

Row | MIC (Pseudomonas aeruginosa) [µM] | CMC [1] [mM] | solubility [1] | SMILES
12 | 5.52 | 0.588 | – | C[N+](C)(CCCCCC[N+](C)(C)CC(=O)NCCC(F)(F)C(F)(F)C(F)(F)C(F)(F)C(F)(F)C(F)(F)F)CC(=O)NCCC(F)(F)C(F)(F)C(F)(F)C(F)(F)C(F)(F)C(F)(F)F.[Br-].[Br-]
13 | 5.19 | 0.546 | – | C[N+](C)(CCC[N+](C)(C)CC(=O)NCCC(F)(F)C(F)(F)C(F)(F)C(F)(F)C(F)(F)C(F)(F)F)CC(=O)NCCC(F)(F)C(F)(F)C(F)(F)C(F)(F)C(F)(F)C(F)(F)F.[Br-].[Br-]
14 | 5.8 | 0.591 | – | C[N+](C)(CC[N+](C)(C)CC(=O)NCCC(F)(F)C(F)(F)C(F)(F)C(F)(F)C(F)(F)C(F)(F)F)CC(=O)NCCC(F)(F)C(F)(F)C(F)(F)C(F)(F)C(F)(F)C(F)(F)F.[Br-].[Br-]
15 | 2.89 | 0.361 | – | C[N+](C)(CCCCCCCC[N+](C)(C)CC(=O)NCCC(F)(F)C(F)(F)C(F)(F)C(F)(F)C(F)(F)C(F)(F)F)CC(=O)NCCC(F)(F)C(F)(F)C(F)(F)C(F)(F)C(F)(F)C(F)(F)F.[Br-].[Br-]
16 | 5.94 | 0.758 | – | C[N+](C)(CCCC[N+](C)(C)CC(=O)NCCC(F)(F)C(F)(F)C(F)(F)C(F)(F)C(F)(F)C(F)(F)F)CC(=O)NCCC(F)(F)C(F)(F)C(F)(F)C(F)(F)C(F)(F)C(F)(F)F.[Br-].[Br-]
17 | 9.25 | 0.541 | – | C[N+](C)(CC(=O)NCCC(F)(F)C(F)(F)C(F)(F)C(F)(F)C(F)(F)C(F)(F)F)CC(O)C[N+](C)(C)CC(=O)NCCC(F)(F)C(F)(F)C(F)(F)C(F)(F)C(F)(F)C(F)(F)F.[Br-].[Br-]
18 | 4.95 | 0.451 | – | C[N+](C)(CCSSCC[N+](C)(C)CC(=O)NCCC(F)(F)C(F)(F)C(F)(F)C(F)(F)C(F)(F)C(F)(F)F)CC(=O)NCCC(F)(F)C(F)(F)C(F)(F)C(F)(F)C(F)(F)C(F)(F)F.[Br-].[Br-]
